Source: article PMC2886105, “Assay Strategies for the Discovery and Validation of Therapeutics Targeting Brugia pahangi Hsp90” (PLoS Neglected Tropical Diseases, 2010)
Where two headings read alike, the source gives them in different places. Values belong to the compound of their own block, whether it stands above or below them.

Key:
Brugia Hsp90 = target: T1, Brugia Hsp90 (Brugia pahangi, UniProt O61998); assay: biochemical; assay type: binding; settings: for dose-dependent reduction of the FP signal: Figure 3B, Brugia extract; for IC50: 6 nM cy3B-GA, 2 µg/well Brugia extract, 4°C, 24 h
T1 construct: from tissue; host or cells: whole adult B. pahangi worms from infected gerbils, ground and re-suspended in HFB assay buffer
Procedure: FP measurements were performed using black 96-well microtiter plates (Corning #3650), where both the excitation and the emission occurred from the top of the well, on an Analyst GT plate reader (Molecular Devices, Sunnyvale, CA). An integration time of 100 ms was used, and Z height was set at 3 mm (middle). The excitation polarization was set at static, and the emission polarization was set at dynamic. […] All FP values were expressed in millipolarization (mP) units. The mP values were calculated using the equation mP = 1000× [(IS – ISB) – (IP – IPB)]/[(IS – ISB) + (IP – IPB)], where IS is the parallel emission intensity measurement, IP is the perpendicular emission intensity sample measurement, and ISB and […] are the corresponding measurements for background (buffer). Total fluorescence was determined as 2×IP+IS.
For the competition studies, FP assays were performed as previously reported. […] Drugs were added to triplicate wells. […] Plates were incubated on a shaker at 4°C, and polarization values measured at 8 to 24 h.
(§1) Figure 3 Brugia assay validation. […] Ligand binding was plotted against the log10 inhibitor concentration, and EC50 values were calculated using a nonlinear least-square curve-fitting program in Prism 4.0. Points, mean; bars, s.d. […] Graphs show mean and SD of Mf output over a three-day period from six female worms per group.

adult female B. pahangi [1] = assay: Mf output by adult female B. pahangi cultured in vitro with drug; design: species or system Brugia pahangi; settings: GA at 1 µM; PU-H71 and PU-DZ8 at 5 and 10 µM; three-day period
Procedure: (§2) Mf output by individual female worms was assessed at two time points and adult worms were examined microscopically and their condition noted. Results are expressed as mean Mf output over a three-day period ± SD. Statistical significance between groups was calculated using the Mann Whitney test with P values <0.05 being considered significant.
as §1

adult B. pahangi = assay: Condition and activity of adult B. pahangi worms in vitro; design: species or system Brugia pahangi
Procedure: Mf output by individual female worms was assessed at two time points and adult worms were examined microscopically and their condition noted. Results are expressed as mean Mf output over a three-day period ± SD.

B. pahangi Mf = assay: Mortality of purified B. pahangi Mf incubated in drug; design: species or system Brugia pahangi; settings: day 7
Procedure: as §2
In separate experiments, Mf were purified from the peritoneal cavity of infected animals and incubated alone in each of the drugs.

adult female B. pahangi [2] = test system: adult female B. pahangi; design: method as in PMID 15862576; settings: adult worms ref 14; cited from earlier work

- EC50 (Brugia Hsp90): > 10000 nM
Compound: CO[C@@H]1[C@@H](OC(N)=O)[C@@H](O)[C@H](Oc2ccc3c(O)c(NC(=O)c4ccc(O)c(CC=C(C)C)c4)c(=O)oc3c2C)OC1(C)C [novobiocin]

- EC50 (Brugia Hsp90): 75.4 nM
Compound: C[C@@H]1C[C@H]2O[C@@H]2/C=C\C=C\C(=O)Cc2c(Cl)c(O)cc(O)c2C(=O)O1 [radicicol]

Further lines, the compound ahead of its results:

Compound: ivermectin
- dose-dependent reduction of the FP signal (Brugia Hsp90): no such effect

Compound: CC(C)NCCCn1c(Sc2cc3c(cc2I)OCO3)nc2c(N)ncnc21 [PU-H71]
- IC50 (Brugia Hsp90; Brugia IC50, Figure 4C): 80.8 ± 0.5 nM
- IC50 (Brugia Hsp90; IC50, inhibition of the binding of cy3B-GA to Brugia Hsp90, values in text for Figure 3C): 80 nM
- effect on Mf release (adult female B. pahangi [1]): profound effect
- activity of adult worms (adult B. pahangi; 5.0 µM): markedly less active
- activity of adult worms (adult B. pahangi; 10 µM): markedly less active
- concentration of drug required to kill adult Brugia (adult B. pahangi; in vitro): 2.5 µM
- Mf dead (B. pahangi Mf; 5.0 µM): approximately 80%
- Mf dead (B. pahangi Mf; 10 µM): 100%

Compound: C#CCCCn1c(Cc2cc(OC)c(OC)c(OC)c2Cl)nc2c(N)nc(F)nc21 [PU-24FCl]
- Selectivity ratio (Brugia IC50 / SKBr3 IC50) (Brugia Hsp90): 2
- IC50 (Brugia Hsp90; Brugia IC50, Figure 4C): 1410 ± 10 nM

Compound: COC1=C2C[C@@H](C)C[C@H](OC)[C@H](O)[C@@H](C)/C=C(\C)[C@H](OC(N)=O)[C@@H](OC)/C=C\C=C(/C)C(=O)NC(=CC1=O)C2=O [GA, geldanamycin]
- effect on Mf release (adult female B. pahangi [1]): profound effect
- Mf dead (B. pahangi Mf; 1.0 µM): all dead
- onset of effect on Mf output (adult female B. pahangi [2]): ≤ 24 h

Compound: Nc1ncnc2c1ncn2[C@@H]1O[C@H](COP(=O)(O)OP(=O)(O)O)[C@@H](O)[C@H]1O [ADP]
- dose-dependent reduction of the FP signal (Brugia Hsp90): dose-dependent reduction of the FP signal

Compound: CC(C)NCCCn1c(Sc2cc3c(cc2I)OCC3)nc2c(N)ncnc21 [PU-WS10]
- Selectivity ratio (Brugia IC50 / SKBr3 IC50) (Brugia Hsp90; Brugia vs human SKBr3 Hsp90 species): 9
